By IC50 is commonly meant the concentration that inhibits the measured activity by half. A higher IC50 goes with weaker potency. The term melting point denotes the temperature of the solid-liquid transition.

This passage reports IC50 and melting point results from US7214682B2, “Substituted 2-pyridinyl-6,7,8,9-tetrahydropyrimido{1,2-a}pyrimidin-4-one and 7-pyridinyl-2,3-dihydroimidazo{1,2-a}pyrimidin-5(1h)one derivatives” (Sanofi-aventis, priority 2001, dated 2007).

One series concerns the target GSK3β (Homo sapiens, UniProt P49841). The experiment in a line: Inhibitory activity against GSK3β (TPK1), 33P-ATP phosphorylation of GS1 peptide. In kind it is biochemical. Particulars: TPK1 = GSK3β (b5); table 4. As to the method: Two different protocols can be used.
In a first protocol: 7.5 μM of prephosphorylated GS1 peptide and 10 μM ATP (containing 300,000 cpm of 33P-ATP) were incubated in 25 mM Tris-HCl, pH 7.5, 0.6 mM DTT, 6 mM MgCl2, 0.6 mM EGTA, 0.05 mg/ml BSA buffer for 1 hour at room temperature in the presence of GSK3β (total reaction volume: 100 microliters).
In a second protocol: 4.1 μM of prephosphorylated GS1 peptide and 42 μM ATP (containing 260,000 cpm 33P-ATP) were incubated in 80 mM Mes-NaOH, pH 6.5, 1 mM Mg acetate, 0.5 mM EGTA, 5 mM 2-mercaptoethanol, 0.02% Tween 20, 10% glycerol buffer for 2 hours at room temperature in the presence of GSK3β.
Inhibitors were solubilized in DMSO (final solvent concentration in the reaction medium, 1%).
The reaction was stopped with 100 microliters of a solution made of 25 g polyphosphoric acid (85% P2O5), 126 ml 85% H3PO4, H2O to 500 ml and then diluted to 1:100 before use. An aliquot of the reaction mixture was then transferred to Whatman P81 cation exchange filters and rinsed with the solution described above. Incorporated 33P radioactivity was determined by liquid scintillation spectrometry.
The phosphorylated GS-1 peptide had the following sequence: NH2-[…](P)EDEE-COOH.
The GSK3β inhibitory activity of the compounds of the present invention are expressed in IC50, and as an illustration the range of IC50's of the compounds in table 1 is between 4 nanomolar to 2 micromolar concentrations, of the compounds in table 2 is between 30 nanomolar to 2 micromolar concentrations and of the compounds in table three is between 1 nanomolar to 2 micromolar.

A further series addresses cdk5/p25 (Homo sapiens, UniProt Q00535). The experiment in a line: Inhibitory activity against cdk5/p25 (TPK2), 33P-ATP phosphorylation of Histone H1. Particulars: TPK2 = cdk5/p25 (b7); table 4. The series is classed as biochemical. As for the experimental part: The following protocol may be used: 0.4 mg/ml Histone H1 and 10 μM ATP (containing 300,000 cpm of ^33P-ATP) were incubated in 50 mM Hepes, pH 7.2, 1 mM DTT, 1 mM MgCl2, 1 mM EGTA, 0.02% Tween 20 buffer for 1 hour at room temperature in the presence of cdk5/p25 (total reaction volume: 100 microliters). Inhibitors were solubilized in DMSO (final solvent concentration in the reaction medium, 1%). The reaction was stopped with 100 microliters of a solution of 25 g polyphosphoric acid (85% P2O5), 126 ml 85% H3PO4, H2O to 500 ml (diluted to 1:100 before use). An aliquot of the reaction mixture was then transferred to Whatman P81 cation exchange filters and rinsed with the solution described above. Incorporated ^33P radioactivity was determined by liquid scintillation spectrometry. The cdk5/p25 inhibitory activity of the compounds of the present invention are expressed as IC50 values. Typically, 3-fold serial dilutions of the inhibitor over at least a 1000-fold concentration range are used.

Sequence of GSK3β (P49841 whole entry, species assumed): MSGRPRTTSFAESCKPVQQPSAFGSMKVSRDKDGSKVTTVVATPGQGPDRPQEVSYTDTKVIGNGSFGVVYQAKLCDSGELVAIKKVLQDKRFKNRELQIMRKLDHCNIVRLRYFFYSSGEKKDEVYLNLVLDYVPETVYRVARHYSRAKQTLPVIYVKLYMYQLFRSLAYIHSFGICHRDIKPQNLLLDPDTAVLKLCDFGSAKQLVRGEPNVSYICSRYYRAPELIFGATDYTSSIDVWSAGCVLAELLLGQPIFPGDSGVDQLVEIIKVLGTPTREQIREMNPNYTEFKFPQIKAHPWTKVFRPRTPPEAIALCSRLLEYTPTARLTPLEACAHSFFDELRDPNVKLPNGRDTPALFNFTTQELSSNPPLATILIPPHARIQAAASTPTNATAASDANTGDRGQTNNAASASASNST
Sequence of cdk5/p25 (Q00535 whole entry, species assumed): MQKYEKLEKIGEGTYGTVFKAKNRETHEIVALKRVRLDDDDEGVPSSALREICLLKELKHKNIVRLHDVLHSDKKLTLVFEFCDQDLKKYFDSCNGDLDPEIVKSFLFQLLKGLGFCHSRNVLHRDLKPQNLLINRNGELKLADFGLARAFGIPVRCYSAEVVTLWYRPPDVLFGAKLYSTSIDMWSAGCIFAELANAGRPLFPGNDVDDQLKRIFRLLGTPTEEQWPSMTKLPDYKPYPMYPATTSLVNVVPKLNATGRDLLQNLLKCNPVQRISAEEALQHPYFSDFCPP
Sequence of cdk5/p25 (Q15078 99-307 partner limits assumed, species assumed): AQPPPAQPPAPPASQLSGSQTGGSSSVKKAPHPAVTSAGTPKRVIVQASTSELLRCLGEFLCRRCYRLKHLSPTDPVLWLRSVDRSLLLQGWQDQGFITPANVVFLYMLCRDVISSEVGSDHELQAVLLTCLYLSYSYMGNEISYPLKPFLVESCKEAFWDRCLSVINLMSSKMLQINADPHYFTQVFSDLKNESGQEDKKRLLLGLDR

As to `CC1CCn2c(nc(-c3ccncc3)cc2=O)N1C[C@@H](O)c1ccccc1` (mixture of isomers) [Table 3 Compound 7, 9-[2(S)-Hydroxy-2-phenyl-ethyl]-8-methyl-2-(pyridin-4-yl)-6,7,8,9-tetrahydro-pyrimido[1,2-a]pyrimidin-4-one], the results for the IC50 against GSK3β and against cdk5/p25 were 4 nM and 344 nM, respectively.

For `CC1CCn2c(nc(-c3ccncc3)c(F)c2=O)N1CC(=O)c1ccccc1` (racemic) [Table 3 Compound 18, 3-Fluoro-8-methyl-9-(2-oxo-2-phenyl-ethyl)-2-(pyridin-4-yl)-6,7,8,9-tetrahydro-pyrimido[1,2-a]pyrimidin-4-one], the melting point was 201 to 202 °C. As to `O=c1cc(-c2ccncc2)nc2n1CC(F)(F)CN2C[C@@H](O)c1ccccc1` [Table 1 Compound 5, 9-(2(S)-Hydroxy-2-phenyl-ethyl)-7,7-difluoro-2-(pyridin4-yl)-6,7,8,9-tetrahydro-4H-pyrimido[1,2-a]pyrimidin-4-one], the half-maximal inhibitory concentration (IC50) at GSK3β amounted to 60 nM; against cdk5/p25, 67 nM.

As for `CC1(C)CN(C[C@@H](O)c2ccccc2)c2nc(-c3ccncc3)c(F)c(=O)n2C1` [Table 1 Compound 12, 9-(2(S)-Hydroxy-2-phenyl-ethyl)-3-fluoro-7,7-dimethyl-2-(pyridin-4-yl)-6,7,8,9-tetrahydro-4H-pyrimido[1,2-a]pyrimidin-4-one], the results for the IC50 at GSK3β and against cdk5/p25 were 11 nM and 334 nM, respectively. As to `O=C(CN1CCCn2c1nc(-c1ccncc1)c(F)c2=O)c1cccc(F)c1` [Table 1 Compound 37, 9-[2-Oxo-2-(3-fluorophenyl)-ethyl]-3-fluoro-2-(pyridin-4-yl)-6,7,8,9-tetrahydro-4H-pyrimido[1,2-a]pyrimidin-4-one], the values for the IC50 against GSK3β and against cdk5/p25 were 4 nM and 4600 nM, respectively. In the same order, the values of `O=C(CN1CCCn2c1nc(-c1ccncc1)c(Cl)c2=O)c1ccccc1` [Table 1 Compound 39, 9-(2-Oxo-2-phenyl-ethyl)-3-chloro-2-(pyridin-4-yl)-6,7,8,9-tetrahydro-4H-pyrimido[1,2-a]pyrimidin-4-one] are 4 nM and 62 nM. Take `O=C(CN1CCCn2c1nc(-c1ccncc1)c(Br)c2=O)c1ccccc1` [Table 1 Compound 40, 9-(2-Oxo-2-phenyl-ethyl)-3-bromo-2-(pyridin-4-yl)-6,7,8,9-tetrahydro-4H-pyrimido[1,2-a]pyrimidin-4-one]: the IC50 amounted to 5 nM at GSK3β and 77 nM against cdk5/p25. As to `O=c1c(Cl)c(-c2ccncc2)nc2n1CCCN2C[C@@H](O)c1ccccc1` [Table 1 Compound 42, 9-(2(S)-Hydroxy-2-phenyl-ethyl)-3-chloro-2-(pyridin-4-yl)-6,7,8,9-tetrahydro-4H-pyrimido[1,2-a]pyrimidin-4-one], the figures for the IC50 against GSK3β and on cdk5/p25 were 28 nM and 154 nM, respectively. On to `O=c1c(F)c(-c2ccncc2)nc2n1CCCN2C[C@@H](O)c1ccccc1` [Table 1 Compound 44, 9-(2(S)-Hydroxy-2-phenyl-ethyl)-3-fluoro-2-(pyridin-4-yl)-6,7,8,9-tetrahydro-4H-pyrimido[1,2-a]pyrimidin-4-one], for which the IC50 at GSK3β was 6 nM; against cdk5/p25, above 1000 nM.

Take `CO[C@H](CN1CCCn2c1nc(-c1ccncc1)c(F)c2=O)c1ccccc1` [Table 1 Compound 45, 9-(2(S)-Methoxy-2-phenyl-ethyl)-3-fluoro-2-(pyridin-4-yl)-6,7,8,9-tetrahydro-4H-pyrimido[1,2-a]pyrimidin-4-one]: the 50% inhibitory concentration (IC50) was 6 nM against GSK3β and above 1000 nM on cdk5/p25. Take `Cc1ccc([C@H](O)CN2c3nc(-c4ccncc4)cc(=O)n3CCC2(C)C)cc1` [Table 3 Compound 32, 9-(2(S)-Hydroxy-2-p-tolyl-ethyl)-8,8-dimethyl-2-(pyridin-4-yl)-6,7,8,9-tetrahydro-pyrimido[1,2-a]pyrimidin-4-one]: the half-inhibitory concentration (IC50) at GSK3β is 1 nM; at cdk5/p25, above 1000 nM.
